Experiments:
α-amylase from malt = assay: α-Amylase inhibitory assay; type: biochemical; settings: for IC50: in vitro
Text: The analytical grade chemicals and reagents were used as such in experiments without any purification. Decibel melting point apparatus was used for checking the melting point of the synthesized compounds and are reported as uncorrected. The silica gel-precoated aluminum sheets for thin-layer chromatography (TLC) were employed to keep a vigil of the reaction progress. FT-IR (Diffuse Reflectance Method (DRS) -8000A, Shimadzu, Japan) spectrophotometer was utilized for recording infrared spectra and the Bruker Avance III, 400 MHz NMR spectrometer was employed for nuclear magnetic resonance spectra (^1H NMR, ^13C NMR; Chemical shift δ values- ppm). α-Glucosidase from Saccharomyces cerevisiae (EC 3.2.1.20, Sigma Aldrich) and α-amylase from malt (232-588-1, HiMedia) have been used for in vitro studies.
Xiao et al., and Yoshikawa et al., illustrated a method, with little modification this method has been adopted for measuring the activity.

[1] = molecular target: T1, α-Glucosidase from Saccharomyces cerevisiae (Saccharomyces cerevisiae, UniProt P53341); assay: α-Glucosidase inhibitory assay; type: biochemical; settings: for IC50: in vitro
T1 construct: purchased Sigma Aldrich
Text: The analytical grade chemicals and reagents were used as such in experiments without any purification. Decibel melting point apparatus was used for checking the melting point of the synthesized compounds and are reported as uncorrected. The silica gel-precoated aluminum sheets for thin-layer chromatography (TLC) were employed to keep a vigil of the reaction progress.
The method adopted for performing α-glucosidase inhibitory assay was similar to our prevenient study, Thakral and Singh.

T1 sequence (P53341 whole entry): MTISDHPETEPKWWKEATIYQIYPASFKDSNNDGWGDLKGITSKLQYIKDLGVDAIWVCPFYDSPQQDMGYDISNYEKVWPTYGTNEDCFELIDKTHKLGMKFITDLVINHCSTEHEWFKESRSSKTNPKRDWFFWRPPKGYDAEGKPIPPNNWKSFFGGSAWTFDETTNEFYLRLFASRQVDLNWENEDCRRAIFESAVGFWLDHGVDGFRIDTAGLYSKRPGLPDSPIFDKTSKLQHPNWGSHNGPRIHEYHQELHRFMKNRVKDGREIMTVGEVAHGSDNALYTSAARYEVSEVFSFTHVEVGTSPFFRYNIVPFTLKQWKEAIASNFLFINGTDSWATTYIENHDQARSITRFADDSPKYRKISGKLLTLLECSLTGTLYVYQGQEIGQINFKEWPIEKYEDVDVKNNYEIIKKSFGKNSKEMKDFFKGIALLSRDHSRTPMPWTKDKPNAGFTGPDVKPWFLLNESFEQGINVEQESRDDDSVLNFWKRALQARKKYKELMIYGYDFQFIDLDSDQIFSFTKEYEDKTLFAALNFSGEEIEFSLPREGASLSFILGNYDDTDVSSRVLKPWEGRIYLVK

SMILES	IC50 (α-amylase from malt)	IC50 [1]	melting point	inhibitory potential against α-glucosidase in comparison to standard drug acarbose ([1]; fold relative to acarbose)	inhibitory activity against α-amylase in comparison to standard drug acarbose (α-amylase from malt; fold relative to acarbose)
C[C@H]1O[C@H](O[C@H]2[C@H](O)[C@@H](O)[C@@H](O[C@H]3[C@H](O)[C@@H](O)C(O)O[C@@H]3CO)O[C@@H]2CO)[C@H](O)[C@@H](O)[C@@H]1N[C@H]1C=C(CO)[C@@H](O)[C@H](O)[C@H]1O (stereo partly drawn) [Acarbose, reference compound]	5.6 ± 0.3 µM				
Cc1ccc(NC(=O)c2cc(S(=O)(=O)Nc3ccc(Cl)cc3)c([N+](=O)[O-])cc2Cl)cc1 [Compound 5a, 2-Chloro-5-[(4-chlorophenyl)sulfamoyl]-N-(4-methylphenyl)-4-nitrobenzamide]	7.4 ± 0.15 µM	31.4 ± 1.66 µM	90 to 92 °C		
Cc1cccc(NC(=O)c2cc(S(=O)(=O)Nc3ccc(Cl)cc3)c([N+](=O)[O-])cc2Cl)c1 [Compound 5b, 2-Chloro-5-[(4-chlorophenyl)sulfamoyl]-N-(3-methylphenyl)-4-nitrobenzamide]	5.3 ± 1.23 µM	24.8 ± 2.69 µM	102 to 104 °C		
Cc1ccccc1NC(=O)c1cc(S(=O)(=O)Nc2ccc(Cl)cc2)c([N+](=O)[O-])cc1Cl [Compound 5c, 2-Chloro-5-[(4-chlorophenyl)sulfamoyl]-N-(2-methylphenyl)-4-nitrobenzamide]	8 ± 0.71 µM	26.8 ± 1.13 µM	88 to 90 °C		
COc1ccc(NC(=O)c2cc(S(=O)(=O)Nc3ccc(Cl)cc3)c([N+](=O)[O-])cc2Cl)cc1 [Compound 5d, 2-Chloro-5-[(4-chlorophenyl)sulfamoyl]-N-(4-methoxyphenyl)-4-nitrobenzamide]	38 ± 0.51 µM	38.57 ± 0.01 µM	150 to 152 °C		
COc1ccccc1NC(=O)c1cc(S(=O)(=O)Nc2ccc(Cl)cc2)c([N+](=O)[O-])cc1Cl [Compound 5e, 2-Chloro-5-[(4-chlorophenyl)sulfamoyl]-N-(2-methoxyphenyl)-4-nitrobenzamide]	50.3 ± 0.21 µM	41.7 ± 1.08 µM	164 to 166 °C		
O=C(Nc1ccc(Br)cc1)c1cc(S(=O)(=O)Nc2ccc(Cl)cc2)c([N+](=O)[O-])cc1Cl [Compound 5f, N-(4-Bromophenyl)-2-chloro-5-[(4-chlorophenyl)sulfamoyl]-4-nitrobenzamide]	16 ± 0.33 µM	50.2 ± 0.89 µM	200 to 202 °C		
O=C(Nc1cccc(Br)c1)c1cc(S(=O)(=O)Nc2ccc(Cl)cc2)c([N+](=O)[O-])cc1Cl [Compound 5g, N-(3-Bromophenyl)-2-chloro-5-[(4-chlorophenyl)sulfamoyl]-4-nitrobenzamide]	16.7 ± 0.41 µM	35.9 ± 0.6 µM	181 to 183 °C		
O=C(Nc1ccccc1Br)c1cc(S(=O)(=O)Nc2ccc(Cl)cc2)c([N+](=O)[O-])cc1Cl [Compound 5h, N-(2-Bromophenyl)-2-chloro-5-[(4-chlorophenyl)sulfamoyl]-4-nitrobenzamide]	19.3 ± 0.63 µM	40.6 ± 1.49 µM	180 to 182 °C		
O=C(Nc1cccc(Cl)c1)c1cc(S(=O)(=O)Nc2ccc(Cl)cc2)c([N+](=O)[O-])cc1Cl [Compound 5i, 2-Chloro-N-(3-chlorophenyl)-5-[(4-chlorophenyl)sulfamoyl]-4-nitrobenzamide]	27.1 ± 0.51 µM	14 ± 0.93 µM	220 to 222 °C		
O=C(Nc1ccccc1Cl)c1cc(S(=O)(=O)Nc2ccc(Cl)cc2)c([N+](=O)[O-])cc1Cl [Compound 5j, 2-Chloro-N-(2-chlorophenyl)-5-[(4-chlorophenyl)sulfamoyl]-4-nitrobenzamide]	20.9 ± 1.24 µM	15.8 ± 0.9 µM	176 to 178 °C		
O=C(Nc1ccccc1[N+](=O)[O-])c1cc(S(=O)(=O)Nc2ccc(Cl)cc2)c([N+](=O)[O-])cc1Cl [Compound 5k, 2-Chloro-5-[(4-chlorophenyl)sulfamoyl]-4-nitro-N-(2-nitrophenyl)benzamide]	12.5 ± 0.91 µM	36.9 ± 1.3 µM	150 to 152 °C		
Cc1c(Cl)cccc1NC(=O)c1cc(S(=O)(=O)Nc2ccc(Cl)cc2)c([N+](=O)[O-])cc1Cl [Compound 5l, 2-Chloro-N-(3-chloro-2-methylphenyl)-5-[(4-chlorophenyl)sulfamoyl]-4-nitrobenzamide]	6.3 ± 0.42 µM	29 ± 0.86 µM	212 to 214 °C		
Cc1c(NC(=O)c2cc(S(=O)(=O)Nc3ccc(Cl)cc3)c([N+](=O)[O-])cc2Cl)cccc1[N+](=O)[O-] [Compound 5m, 2-Chloro-5-[(4-chlorophenyl)sulfamoyl]-N-(2-methyl-3-nitrophenyl)-4-nitrobenzamide]	1.52 ± 0.84 µM	24.5 ± 1.23 µM	170 to 172 °C		
O=C(Nc1ccc([N+](=O)[O-])cc1Cl)c1cc(S(=O)(=O)Nc2ccc(Cl)cc2)c([N+](=O)[O-])cc1Cl [Compound 5n, 2-Chloro-N-(2-chloro-4-nitrophenyl)-5-[(4-chlorophenyl)sulfamoyl]-4-nitrobenzamide]	35.3 ± 0.45 µM	29.5 ± 1.53 µM	214 to 216 °C		
Cc1ccc([N+](=O)[O-])cc1NC(=O)c1cc(S(=O)(=O)Nc2ccc(Cl)cc2)c([N+](=O)[O-])cc1Cl [Compound 5o, 2-Chloro-5-[(4-chlorophenyl)sulfamoyl]-N-(2-methyl-5-nitrophenyl)-4-nitrobenzamide]	0.9 ± 0.31 µM	10.8 ± 0.52 µM	203 to 205 °C	fourfold	around six times
Cc1cc([N+](=O)[O-])ccc1NC(=O)c1cc(S(=O)(=O)Nc2ccc(Cl)cc2)c([N+](=O)[O-])cc1Cl [Compound 5p, 2-Chloro-5-[(4-chlorophenyl)sulfamoyl]-N-(2-methyl-4-nitrophenyl)-4-nitrobenzamide]	2.1 ± 0.52 µM	19.5 ± 0.43 µM	104 to 106 °C		
O=C(Nc1ccc([N+](=O)[O-])cc1)c1cc(S(=O)(=O)Nc2ccc(Cl)cc2)c([N+](=O)[O-])cc1Cl [Compound 5q]	11.2 ± 0.67 µM	43.9 ± 1.18 µM	177 to 179 °C		
O=C(Nc1cccc([N+](=O)[O-])c1)c1cc(S(=O)(=O)Nc2ccc(Cl)cc2)c([N+](=O)[O-])cc1Cl [Compound 5r, 2-Chloro-5-[(4-chlorophenyl)sulfamoyl]-4-nitro-N-(3-nitrophenyl)benzamide]	15.3 ± 1.24 µM	34.4 ± 0.62 µM	135 to 137 °C		
CCCNC(=O)c1cc(S(=O)(=O)Nc2ccc(Cl)cc2)c([N+](=O)[O-])cc1Cl [Compound 5s, 2-Chloro-5-[(4-chlorophenyl)sulfamoyl]-4-nitro-N-propylbenzamide]	48.05 ± 0.23 µM	106.2 ± 0.61 µM	116 to 118 °C		
CCCCNC(=O)c1cc(S(=O)(=O)Nc2ccc(Cl)cc2)c([N+](=O)[O-])cc1Cl [Compound 5t, N-Butyl-2-chloro-5-[(4-chlorophenyl)sulfamoyl]-4-nitrobenzamide]	55.1 ± 0.71 µM	131 ± 2.42 µM	111 to 113 °C		
O=C(NCc1ccco1)c1cc(S(=O)(=O)Nc2ccc(Cl)cc2)c([N+](=O)[O-])cc1Cl [Compound 5u, 2-Chloro-5-[(4-chlorophenyl)sulfamoyl]-N-[(furan-2-yl)methyl]-4-nitrobenzamide]	38.2 ± 0.34 µM	89 ± 1.76 µM	191 to 193 °C		
O=C(Nc1ccncc1)c1cc(S(=O)(=O)Nc2ccc(Cl)cc2)c([N+](=O)[O-])cc1Cl [Compound 5v, 2-Chloro-5-[(4-chlorophenyl)sulfamoyl]-4-nitro-N-(pyridin-4-yl)benzamide]	40.4 ± 0.87 µM	52.4 ± 1.92 µM	197 to 199 °C		
